From the supplement of paper PMC8617591

Legend:
[1] = tested on: Mycobacterium tuberculosis Erdman (autoluminescent); assay: FIC90 (Loewe) at 90% inhibition (log2); higher = more antagonistic
Experimental: (§1)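 DiaMOND equipotent two-drug combination dose responses against autoluminescent M. tuberculosis Erdman in 8 in vitro models. Read-out is OD600, or luminescence for the intracellular and dormancy models, normalised to untreated wells. Hill-fit Einf, AUC25 and GRinf are potency metrics; FIC50 and FIC90 are Loewe-additivity fractional inhibitory concentrations, given as log2 (negative = synergy). Replicates are averaged.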

[2] = tested on: Mycobacterium tuberculosis Erdman (autoluminescent); assay: Einf, fitted maximum growth inhibition of combination (fraction); higher = stronger maximal inhibition
Experimental: as §1

[3] = tested on: Mycobacterium tuberculosis Erdman (autoluminescent); assay: GRinf, maximum normalised growth rate inhibition (unitless (-1 to 1)); higher = less effect (negative = killing)
Experimental: as §1

[4] = tested on: Mycobacterium tuberculosis Erdman (autoluminescent); assay: AUC25, normalised area under dose response up to IC25 (fraction (0-1)); higher = more potent at low dose
Experimental: as §1

[5] = tested on: Mycobacterium tuberculosis Erdman (autoluminescent); assay: FIC50 (Loewe) at 50% inhibition (log2); higher = more antagonistic
Experimental: as §1

CC(C)/N=c1\cc2n(-c3ccc(Cl)cc3)c3ccccc3nc-2cc1Nc1ccc(Cl)cc1 [clofazimine] + CO[C@H]1/C=C/O[C@@]2(C)Oc3c(C)c(O)c4c(O)c(c(/C=N/N5CCN(C6CCCC6)CC5)c(O)c4c3C2=O)NC(=O)/C(C)=C\C=C\[C@H](C)[C@H](O)[C@@H](C)[C@@H](O)[C@@H](C)[C@H](OC(C)=O)[C@@H]1C [rifapentine]
Conditions | AUC25, [4] | Einf, [2] | FIC50, [5] | FIC90, [1] | GRinf, [3]
in vitro model: acidic pH 5.7, time point: constant (~7 days, model-specific) | 0.0913 | 0.879 | 0.0615 | 0.794 | -0.198
in vitro model: acidic pH 5.7, time point: terminal (~4-5 doublings, model-specific) | 0.0911 | 0.986 | -0.0081 | 0.123 | -0.304
in vitro model: intracellular J774, time point: constant = terminal | – | 0.988 | – | 0.278 | -0.308

Conditions | AUC25, [4] | Einf, [2] | FIC50, [5] | FIC90, [1] | GRinf, [3]
in vitro model: butyrate, time point: constant (~7 days, model-specific) | 0.112 | 0.95 | 0.36 | 0.54 | -0.0864
in vitro model: butyrate, time point: terminal (~4-5 doublings, model-specific) | 0.0945 | 0.986 | 0.279 | 0.504 | -0.0855
in vitro model: cholesterol 0.05 mM, time point: constant (~7 days, model-specific) | 0.137 | 0.651 | 1.24 | – | -0.17
in vitro model: cholesterol 0.05 mM, time point: terminal (~4-5 doublings, model-specific) | 0.111 | 0.887 | 1.3 | 1.44 | -0.127
in vitro model: cholesterol-high 0.2 mM, time point: constant (~7 days, model-specific) | 0.102 | 0.924 | 0.657 | 1.06 | -0.717
in vitro model: cholesterol-high 0.2 mM, time point: terminal (~4-5 doublings, model-specific) | 0.0885 | 0.996 | 0.714 | 0.543 | -0.813
in vitro model: dormancy (butyrate + nitrate, low O2), time point: constant (~7 days, model-specific) | 0.0864 | 0.932 | 0.121 | 0.16 | 0.0493
in vitro model: dormancy (butyrate + nitrate, low O2), time point: terminal (~4-5 doublings, model-specific) | 0.057 | 0.984 | 0.512 | 0.536 | -0.373
in vitro model: standard 7H9 glycerol, time point: constant = terminal | 0.1 | 0.967 | 0.18 | 0.35 | -0.11
in vitro model: valerate, time point: constant (~7 days, model-specific) | 0.136 | 0.885 | 0.297 | – | -0.112
in vitro model: valerate, time point: terminal (~4-5 doublings, model-specific) | 0.0746 | 0.918 | 0.0341 | 0.667 | 0.116

CC(C)/N=c1\cc2n(-c3ccc(Cl)cc3)c3ccccc3nc-2cc1Nc1ccc(Cl)cc1 [clofazimine] + CO[C@H]1/C=C/O[C@@]2(C)Oc3c(C)c(O)c4c(O)c(c(/C=N/N5CCN(C)CC5)c(O)c4c3C2=O)NC(=O)/C(C)=C\C=C\[C@H](C)[C@H](O)[C@@H](C)[C@@H](O)[C@@H](C)[C@H](OC(C)=O)[C@@H]1C [rifampicin]
Conditions | AUC25, [4] | Einf, [2] | FIC50, [5] | FIC90, [1] | GRinf, [3]
in vitro model: acidic pH 5.7, time point: constant (~7 days, model-specific) | 0.0889 | 0.874 | -0.0436 | -1.95 | -0.208
in vitro model: acidic pH 5.7, time point: terminal (~4-5 doublings, model-specific) | 0.0797 | 0.986 | 0.0811 | -0.172 | -0.273
in vitro model: intracellular J774, time point: constant = terminal | – | 0.967 | – | 0.0974 | -0.265

Conditions | AUC25, [4] | Einf, [2] | FIC50, [5] | FIC90, [1] | GRinf, [3]
in vitro model: butyrate, time point: constant (~7 days, model-specific) | 0.117 | 0.936 | 0.216 | 0.25 | -0.0602
in vitro model: butyrate, time point: terminal (~4-5 doublings, model-specific) | 0.104 | 0.979 | 0.0822 | 0.348 | -0.0537
in vitro model: cholesterol 0.05 mM, time point: constant (~7 days, model-specific) | 0.113 | 0.573 | 0.4 | – | 0.303
in vitro model: cholesterol 0.05 mM, time point: terminal (~4-5 doublings, model-specific) | 0.0926 | 0.867 | 1.24 | 2.57 | 0.0118
in vitro model: cholesterol-high 0.2 mM, time point: constant (~7 days, model-specific) | 0.0989 | 0.907 | 0.773 | 2.49 | -0.497
in vitro model: cholesterol-high 0.2 mM, time point: terminal (~4-5 doublings, model-specific) | 0.0908 | 1 | 1.01 | 0.724 | -0.955
in vitro model: dormancy (butyrate + nitrate, low O2), time point: constant (~7 days, model-specific) | 0.0883 | 0.893 | 0.2 | -0.494 | 0.194
in vitro model: dormancy (butyrate + nitrate, low O2), time point: terminal (~4-5 doublings, model-specific) | 0.062 | 0.97 | 0.0425 | 0.45 | -0.059
in vitro model: standard 7H9 glycerol, time point: constant = terminal | 0.103 | 0.935 | -0.376 | -0.394 | 0.00747
in vitro model: valerate, time point: constant (~7 days, model-specific) | 0.119 | 0.907 | 0.421 | – | -0.0677
in vitro model: valerate, time point: terminal (~4-5 doublings, model-specific) | 0.0808 | 0.955 | 0.569 | 1.43 | 0.00769

CC(C)/N=c1\cc2n(-c3ccc(Cl)cc3)c3ccccc3nc-2cc1Nc1ccc(Cl)cc1 [clofazimine] + COc1c(N2C[C@@H]3CCCN[C@@H]3C2)c(F)cc2c(=O)c(C(=O)O)cn(C3CC3)c12 [moxifloxacin]
Conditions | AUC25, [4] | Einf, [2] | FIC50, [5] | FIC90, [1] | GRinf, [3]
in vitro model: acidic pH 5.7, time point: constant (~7 days, model-specific) | 0.151 | 0.605 | 0.466 | – | -0.0307
in vitro model: acidic pH 5.7, time point: terminal (~4-5 doublings, model-specific) | 0.0976 | 0.937 | 0.107 | 0.181 | -0.212
in vitro model: intracellular J774, time point: constant = terminal | – | 0.953 | – | 0.341 | -0.283

Conditions | AUC25, [4] | Einf, [2] | FIC50, [5] | FIC90, [1] | GRinf, [3]
in vitro model: butyrate, time point: constant (~7 days, model-specific) | 0.109 | 0.955 | 0.486 | 1 | -0.131
in vitro model: butyrate, time point: terminal (~4-5 doublings, model-specific) | 0.0987 | 0.991 | 0.404 | 0.955 | -0.125
in vitro model: cholesterol 0.05 mM, time point: constant (~7 days, model-specific) | 0.153 | 0.711 | 0.262 | – | -0.0492
in vitro model: cholesterol 0.05 mM, time point: terminal (~4-5 doublings, model-specific) | 0.119 | 0.905 | 0.647 | -0.276 | -0.105
in vitro model: cholesterol-high 0.2 mM, time point: constant (~7 days, model-specific) | 0.131 | 0.944 | 0.132 | 1.06 | -0.922
in vitro model: cholesterol-high 0.2 mM, time point: terminal (~4-5 doublings, model-specific) | 0.113 | 1 | 0.0758 | 0.41 | -0.95
in vitro model: dormancy (butyrate + nitrate, low O2), time point: constant (~7 days, model-specific) | 0.109 | 0.931 | 0.299 | 0.00346 | -0.049
in vitro model: dormancy (butyrate + nitrate, low O2), time point: terminal (~4-5 doublings, model-specific) | 0.0647 | 0.98 | 0.666 | 0.72 | -0.241
in vitro model: standard 7H9 glycerol, time point: constant = terminal | 0.109 | 0.971 | 0.11 | 0.558 | -0.193
in vitro model: valerate, time point: constant (~7 days, model-specific) | 0.139 | 0.895 | -0.0703 | – | -0.179
in vitro model: valerate, time point: terminal (~4-5 doublings, model-specific) | 0.0871 | 0.941 | 0.137 | 0.7 | -0.0272
